Measurements reported in patent US20180064712A1, “METHODS OF REDUCING IMMUNE CELL ACTIVATION AND USES THEREOF” (Washington University, priority 2016, published 2018).

How the values were obtained:
[1] = test system: IL-15 TM cells; assay: EM analysis of mitochondrial cristae after stimulation with or without Mdivi-1; assay type: cell-based, mice; conditions: IL-15 TM cells activated with αCD3/CD28-conjugated beads or PMA and ionomycin, presence or absence of Mdivi-1
Source text: (§1) FIG. 6A, FIG. 6B, FIG. 6C, FIG. 6D, FIG. 6E, FIG. 6F, FIG. 6G, FIG. 6H, FIG. 6I, FIG. 6J, FIG. 6K, FIG. 6L, FIG. 6M, and FIG. 6N depict graphs and images showing that mitochondrial cristae remodeling signals metabolic pathway engagement. (FIG. 6A) Basal ECAR of OT-I Opa1^+/+ and Opa1^−/− IL-2 TE cells (left) and day 7 TE cells isolated ex vivo after adoptive transfer from LmOVA infection (right). Data combined from 2-3 experiments (*p=0.0412, ***p<0.0001). (FIG. 6B) OCR at baseline and after indicated drugs, representative of 2 experiments shown as mean±SEM, and (FIG. 6C) D-Glucose-^13C1,2 trace analysis of OT-I Opa1^+/+ and Opa1^−/− IL-2 TE cells. Each lane represents separate mice with a technical replicate. (FIG. 6D) EM analysis of mitochondrial cristae from TE and TM cells isolated after LmOVA infection and (FIG. 6E) in vitro cultured IL-2 TE and TM cells. Data representative of 2 experiments, scale bar=0.25 μm. […] (FIG. 6K) IL-15 TM cell, (FIG. 6L, FIG. 6M) bone marrow-derived dendritic cell (BM-DCs) and macrophage (BM-Macs) % ECAR measured at baseline and after media, αCD3/CD28-conjugated bead, LPS, or LPS+IFN-γ injection as indicated. […]
To more thoroughly examine this idea, we assessed cristae morphology in TE and TM cells by EM following TCR stimulation. […]

[2] = test system: IL-15 TM cells; assay: ECAR after αCD3/28 bead stimulation with or without Mdivi-1; assay type: cell-based, mice; conditions: αCD3/28-conjugated beads, 10 μM Mdivi-1 vs control
Source text: as §1, with “replicate.” for “replicate. (FIG. 6D) EM analysis of mitochondrial cristae from TE and TM cells isolated after LmOVA infection and (FIG. 6E) in vitro cultured IL-2 TE and TM cells. Data representative of 2 experiments, scale bar=0.25 μm.”
(§2) To more directly test this idea, we assessed ECAR of IL-15 TM cells that were stimulated with αCD3/28-conjugated beads in the presence or absence of Mdivi-1. […] We stimulated bone marrow derived dendritic cells (BM-DCs) and macrophages (BM-Macs) with lipolysaccharide (LPS) with or without interferon (IFN)-γ in the presence or absence of Mdivi-1 and measured ECAR. […]

[3] = test system: bone marrow derived dendritic cells (BM-DCs); assay: ECAR after LPS stimulation with or without Mdivi-1, dendritic cells; assay type: cell-based, mice; conditions: BM-DCs following stimulation with LPS, 10 μM Mdivi-1
Source text: as §1, with “replicate.” for “replicate. (FIG. 6D) EM analysis of mitochondrial cristae from TE and TM cells isolated after LmOVA infection and (FIG. 6E) in vitro cultured IL-2 TE and TM cells. Data representative of 2 experiments, scale bar=0.25 μm.”
as §2

[4] = test system: Bone marrow derived macrophages (BM-Macs); assay: ECAR after LPS with or without IFN-γ stimulation with or without Mdivi-1, macrophages; assay type: cell-based, mice; conditions: BM-Macs following stimulation with LPS with or without IFN-γ, 10 μM Mdivi-1
Source text: as §1, with “replicate.” for “replicate. (FIG. 6D) EM analysis of mitochondrial cristae from TE and TM cells isolated after LmOVA infection and (FIG. 6E) in vitro cultured IL-2 TE and TM cells. Data representative of 2 experiments, scale bar=0.25 μm.”
as §2

[5] = test system: BM-Macs; assay: intracellular Nos2 protein by flow cytometry; assay type: cell-based, mice; conditions: stimulated BM-Macs, Mdivi-1 treated
[6] = test system: mitochondrial fission; conditions: as disclosed in Cassidy-Stone et al. Developmental Cell 2008; cited from earlier work

COc1cc(-n2c(=S)[nH]c3ccccc3c2=O)c(Cl)cc1Cl [Mdivi-1]
cristae morphology by EM [1]: intermembrane space widening over time in control cells in comparison to drug treated cells | aerobic glycolysis (ECAR) [2]: did not robustly increase aerobic glycolysis | aerobic glycolysis (ECAR) [3]: curtailed | aerobic glycolysis (ECAR) [4]: curtailed | nitric oxide synthase 2 (Nos2) protein expression [5]: significantly decreased | efficacy relative to Mdivi-1 as mitochondrial fission inhibitor [6]: full efficacy
